Results on 14 molecules are retold here after patent US9133115B2 (ACHILLION PHARMACEUTICALS, INC., priority 2008, dated 2015).

What is called EC50 is the concentration needed to bring the measured effect to its halfway point.

The test deals with HCV replicon. The test is described as follows: HCV replicon replication assay (NPT ELISA) in Huh-7 replicon-containing cells. It is filed as cell-based. The conditions noted are these: Hepatitis C virus, 72 h; HCV replicon in Huh-7 cells, three days incubation; read-out: EC50. The gist of the method:
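Replication was scored by capture ELISA of neomycin phosphotransferase, whose level tracks replicon replication, after graded compound treatment. The cells were Huh-7 harbouring an HCV-IRES/neo/EMCV-IRES/NS3–NS5B/3′-NTR replicon, plated at 6000-7500 cells/well and dosed 24 h later at 60-70% confluence; interferon alpha was the positive control.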
(In antiviral work, replicon cells carry a viral genome segment that copies itself.)
On to `C=C[C@@H]1C[C@]1(NC(=O)[C@@H]1C[C@@H](Oc2cc(-c3ccccc3)nc3cc(OC)ccc23)CN1C(=O)[C@@H](CC(=O)N1CCCCC1)C(C)(C)C)C(=O)NS(=O)(=O)C1CCCC1` [Compound 105, (2S,4R)-1-((S)-2-tert-butyl-4-oxo-4-(piperidin-1-yl)butanoyl)-N-((1R,2S)-1-(cyclopentyl-sulfonylcarbamoyl)-2-vinylcyclopropyl)-4-(7-methoxy-2-phenylquinolin-4-yloxy)pyrrolidine-2-carboxamide], for which the EC50 was < 1000 nM.
In the case of `C=C[C@@H]1C[C@]1(NC(=O)[C@@H]1C[C@@H](Oc2cc(-c3ccccc3)nc3cc(OC)ccc23)CN1C(=O)[C@@H](CC(=O)N1CCCCC1)C(C)(C)C)C(=O)O` [Compound 210, (1R)-1-((2S,4R)-1-((S)-2-tert-butyl-4-oxo-4-(piperidin-1-yl)butanoyl)-4-(7-methoxy-2-phenylquinolin-4-yloxy)pyrrolidine-2-carboxamido)-2-vinylcyclopropane-carboxylic acid] it was > 10000 nM.
In the case of `CCC[C@@H](NC(=O)[C@@H]1C[C@@H](Oc2cc(-c3ccccc3)nc3cc(OC)ccc23)CN1C(=O)[C@@H](CC(=O)N1CCCCC1)C(C)(C)C)C(=O)NS(=O)(=O)C1CC1` [Compound 117, (2S,4R)-1-((S)-2-tert-butyl-4-oxo-4-(piperidin-1-yl)butanoyl)-N-((R)-1-(cyclopropanesulfon-amido)-1-oxopentan-2-yl)-4-(7-methoxy-2-phenylquinolin-4-yloxy)pyrrolidine-2-carboxamide] it was 1000 to 10000 nM; in that of `C=CC1C[C@]1(NC(=O)[C@@H]1C[C@@H](Oc2cc(-c3csc(C(C)C)n3)nc3c(C)c(OC)ccc23)CN1C(=O)[C@@H](CC(=O)N1CCCC(F)(F)C1)C(C)(C)C)C(=O)NS(=O)(=O)C1CC1` (stereo partly drawn) [Compound 254, (2S,4R)-1-((S)-2-tert-butyl-4-(3,3-difluoropiperidin-1-yl)-4-oxobutanoyl)-N-((1R)-1-(cyclopropyl-sulfonylcarbamoyl)-2-vinylcyclopropyl)-4-(2-(2-isopropylthiazol-4-yl)-7-methoxy-8-methylquinolin-4-yloxy)pyrrolidine-2-carboxamide], < 1000 nM.
On to `C=C[C@@H]1C[C@]1(NC(=O)[C@@H]1C[C@@H](OC(=O)N(c2ccccc2)c2ccccc2)CN1C(=O)[C@@H](CC(=O)N1CCCCC1)C(C)(C)C)C(=O)NS(=O)(=O)C1CC1` [Compound 129, (3R,5S)-1-((S)-2-tert-butyl-4-oxo-4-(piperidin-1-yl)butanoyl)-5-((1R,2S)-1-(cyclopropylsulfon-ylcarbamoyl)-2-vinylcyclopropyl-carbamoyl)pyr-rolidin-3-yl diphenylcarbamate], for which the EC50 is 1000 to 10000 nM.
In the case of `C=C[C@@H]1C[C@]1(NC(=O)[C@@H]1C[C@@H](Oc2cc(-c3ccccc3)nc3cc(OC)ccc23)CN1C(=O)[C@@H](CC(=O)N1CCC(F)(F)CC1)C(C)(C)C)C(=O)NS(=O)(=O)C1CC1` [Compound 119, (2S,4R)-1-((S)-2-tert-butyl-4-(4,4-difluoropiperidin-1-yl)-4-oxobutanoyl)-N-((1R,2S)-1-(cyclopropylsulfonyl-carbamoyl)-2-vinylcyclopropyl)-4-(7-methoxy-2-phenylquinolin-4-yloxy)pyrrolidine-2-carboxamide], the EC50 was < 1000 nM.
Turning to `C=C[C@@H]1C[C@]1(NC(=O)[C@@H]1C[C@@H](Oc2cc(-c3ccccc3)nc3cc(OC)ccc23)CN1C(=O)[C@@H](CC(=O)N1CCCCC1)C(C)(C)C)C(=O)NS(=O)(=O)Cc1ccccc1` [Compound 64, (2S,4R)-N-((1R,2S)-1-(benzylsulfonyl-carbamoyl)-2-vinylcyclopropyl)-1-((S)-2-tert-butyl-4-oxo-4-(piperidin-1-yl)butanoyl)-4-(7-methoxy-2-phenylquinolin-4-yloxy)pyrrolidine-2-carboxamide], the EC50 is 1000 to 10000 nM.
As to `C=C[C@@H]1C[C@]1(NC(=O)[C@@H]1C[C@@H](Oc2cc(-c3ccccn3)nc3c(Cl)c(OC)ccc23)CN1C(=O)[C@@H](CC(=O)N1CCCC(F)C1)C(C)(C)C)C(=O)NS(=O)(=O)C1CC1` (some centres unmarked) [Compound 209], the EC50 is < 1000 nM.
Turning to `C=C[C@@H]1C[C@]1(NC(=O)[C@@H]1C[C@@H](Oc2cc(-c3ccccc3)nc3cc(OC)ccc23)CN1C(=O)[C@@H](CC(=O)N1CCCCC1)C(C)(C)C)C(=O)NS(C)(=O)=O` [Compound 68, (2S,4R)-1-((S)-2-tert-butyl-4-oxo-4-(piperidin-1-yl)butanoyl)-4-(7-methoxy-2-phenylquinolin-4-yloxy)-N-((1R,2S)-1-(methylsulfonyl-carbamoyl)-2-vinyl-cyclopropyl)pyr-rolidine-2-carboxamide], the concentration for a half-maximal effect (EC50) is < 1000 nM.
The same measure for `C=C[C@@H]1C[C@]1(NC(=O)[C@@H]1C[C@@H](Oc2cc(-c3ccccn3)nc3c(Cl)c(OC)ccc23)CN1C(=O)[C@@H](CC(=O)N1CCCC(F)(F)C1)C(C)(C)C)C(=O)NS(=O)(=O)C1CC1` [Compound 181, (2S,4R)-1-((S)-2-tert-butyl-4-(3,3-difluoropiperidin-1-yl)-4-oxobutanoyl)-4-(8-chloro-7-methoxy-2-(pyridin-2-yl)quinolin-4-yloxy)-N-((1R,2S)-1-(cyclopropyl-sulfonylcarbamoyl)-2-vinyl-cyclopropyl)pyr-rolidine-2-carboxamide]: < 1000 nM; for `C=C[C@@H]1C[C@]1(NC(=O)[C@@H]1C[C@@H](OC(=O)N2c3ccccc3Sc3ccccc32)CN1C(=O)[C@@H](CC(=O)N1CCCCC1)C(C)(C)C)C(=O)NS(=O)(=O)C1CC1` [Compound 123, (3R,5S)-1-((S)-2-tert-butyl-4-oxo-4-(piperidin-1-yl)butanoyl)-5-((1R,2S)-1-(cyclopropylsulfonyl-carbamoyl)-2-vinyl-cyclopropylcarbamo-yl)pyrrolidin-3-yl 10H-phenothiazine-10-carboxylate]: 1000 to 10000 nM; for `C=C[C@@H]1C[C@]1(NC(=O)[C@@H]1C[C@@H](OC(=O)Nc2cccc(Oc3ccccc3)c2)CN1C(=O)[C@@H](CC(=O)N1CCCCC1)C(C)(C)C)C(=O)NS(=O)(=O)C1CC1` [Compound 95, (3R,5S)-1-((S)-2-tert-butyl-4-oxo-4-(piperidin-1-yl)butanoyl)-5-((1R,2S)-1-(cyclopropylsulfonyl-carbamoyl)-2-vinylcyclopropyl-carbamoyl)pyrrolidin-3-yl 3-phenoxyphenyl-carbamate]: 1000 to 10000 nM.
In the case of `C=C[C@@H]1C[C@]1(NC(=O)[C@@H]1C[C@@H](Oc2cc(-c3ccccc3)nc3cc(OC)ccc23)CN1C(=O)[C@@H](CC(=O)N1CCCCC1)C(C)(C)C)C(=O)NS(=O)(=O)C1(CCC)CC1` [Compound 146, (2S,4R)-1-((S)-2-tert-butyl-4-oxo-4-(piperidin-1-yl)butanoyl)-4-(7-methoxy-2-phenylquinolin-4-yloxy)-N-((1R,2S)-1-(1-propylcyclo-propylsulfonyl-carbamoyl)-2-vinyl-cyclopropyl)pyr-rolidine-2-carboxamide], the EC50 was < 1000 nM.
Regarding `C=C[C@@H]1C[C@]1(NC(=O)[C@@H]1C[C@@H](Oc2cc(-c3ccccc3)nc3ccc(C)cc23)CN1C(=O)[C@@H](CC(=O)N1CCCCC1)C(C)(C)C)C(=O)NS(=O)(=O)C1CC1` [Compound 226, (2S,4R)-1-((S)-2-tert-butyl-4-oxo-4-(piperidin-1-yl)butanoyl)-N-((1R)-1-(cyclopropyl-sulfonylcarbamoyl)-2-vinylcyclopropyl)-4-(6-methyl-2-phenylquinolin-4-yloxy)pyrrolidine-2-carboxamide], the concentration giving a half-maximal response (EC50) is < 1000 nM.
